For orientation: IC50 means the concentration that gives 50% inhibition. Lower therefore signals greater potency in that assay.

The text below walks through data of PMC9386806 (ACS Omega, 2022).

The assay concerns the target hCA II (Homo sapiens, UniProt P00918). As to the kind of experiment: biochemical.
Consider `CCOC(=O)C1=C(N)Oc2c(c(=O)oc3cc(O)ccc23)C1c1ccccc1OCc1cc2ccccc2oc1=O` (stereo not shown) [Compound 12j, 2-Amino-8-hydroxy-5-oxo-4-[2-(2-oxo-2H-chromen-3-ylmethoxy)-phenyl]-4H,5H-pyrano[3,2-c]chromene-3-carboxylic Acid Ethyl Ester], for which the concentration for half-maximal inhibition (IC50) was 7.78 ± 0.08 µM.

Compound `COC(=O)C1=C(N)Oc2c(c(=O)oc3ccc(C)cc23)C1c1ccccc1OCc1cc2ccccc2oc1=O` (stereo not shown) [Compound 12e, 2-Amino-9-methyl-5-oxo-4-[2-(2-oxo-2H-chromen-3-ylmethoxy)-phenyl]-4H,5H-pyrano[3,2-c]chromene-3-carboxylic Acid Methyl Ester] returned an IC50 of 21.8 ± 3.32 µM.

`N#CC1=C(N)Oc2c(c(=O)oc3cc(O)ccc23)C1c1ccccc1OCc1cc2ccccc2oc1=O` (stereo not shown) [Compound 12h, 2-Amino-8-hydroxy-5-oxo-4-[2-(2-oxo-2H-chromen-3-ylmethoxy)-phenyl]-4H,5H-pyrano[3,2-c]chromene-3-carbonitrile]: inhibition was half-maximal at 4.55 ± 0.22 µM (IC50).

`COC(=O)C1=C(N)Oc2c(c(=O)oc3cc(O)ccc23)C1c1ccccc1OCc1cc2ccccc2oc1=O` (stereo not shown) [Compound 12i, 2-Amino-8-hydroxy-5-oxo-4-[2-(2-oxo-2H-chromen-3-ylmethoxy)-phenyl]-4H,5H-pyrano[3,2-c]chromene-3-carboxylic Acid Methyl Ester]: it took 4.91 ± 1.13 µM to reach half-maximal inhibition (IC50).
